Source: ChEMBL document CHEMBL5154761, “Design, synthesis, and evaluation of 9-(pyrimidin-2-yl)-9H-carbazole derivatives disrupting mitochondrial homeostasis in human lung adenocarcinoma” (Eur J Med Chem, 2022)
The source made the active and inactive calls. The rule behind the calls is not given here.

What was measured:
[1] = tested on: A549; experiment: Induction of cell cycle arrest in human A549 cells assessed as accumulation at G2/M phase at 10 uM incubated for 48 hrs by PI staining based flow cytometry analysis; format: functional
[2] = tested on: A549; experiment: Cytotoxicity against human A549 cells assessed as cell growth inhibition at 10 uM incubated for 48 hrs by MTT assay relative to control; format: functional
[3] = tested on: A549; experiment: Cytotoxicity against human A549 cells assessed as cell growth inhibition incubated for 48 hrs by MTT assay; format: functional, cell-based; conditions: A549, 48 h

## O=C(c1cccs1)c1cccc2c3ccccc3n(-c3ncccn3)c12
[1]
  Activity: Active
[2]
  inhibition at 10 µM: < 50%
[3]
  IC50: 4.02 µM

## O=C(c1ccc(Cl)cc1)c1cccc2c3ccccc3n(-c3ncccn3)c12
[1]
  Activity: Active
[2]
  inhibition at 10 µM: 50%
[3]
  IC50: 6.69 µM

## CC(C)(C)OC(=O)c1cccc2c3cc(Cl)ccc3n(-c3ncccn3)c12
[1]
  Activity: Active

## O=C(O)c1cccc2c3ccccc3n(-c3ncccn3)c12
[3]
  IC50: 15.5 µM

## O=C(c1ccccc1Cl)c1cccc2c3ccccc3n(-c3ncccn3)c12
[1]
  Activity: Active
[2]
  inhibition at 10 µM: 50%
[3]
  IC50: 6.84 µM
